# Experimental data from patent publication US20050266509A1, “Interaction of NMDA receptor with protein tyrosine phosphatase” (AGY Therapeutics, Inc., priority 2003, published 2005).
# “Also recorded” adds a separate entry of the source.
# Experiments:
# [1] = biological target: T1, CD45 (Homo sapiens, UniProt P08575); assay: FRET phosphatase assay, CD45; assay type: biochemical
# T1 sequence (P08575 26-1306): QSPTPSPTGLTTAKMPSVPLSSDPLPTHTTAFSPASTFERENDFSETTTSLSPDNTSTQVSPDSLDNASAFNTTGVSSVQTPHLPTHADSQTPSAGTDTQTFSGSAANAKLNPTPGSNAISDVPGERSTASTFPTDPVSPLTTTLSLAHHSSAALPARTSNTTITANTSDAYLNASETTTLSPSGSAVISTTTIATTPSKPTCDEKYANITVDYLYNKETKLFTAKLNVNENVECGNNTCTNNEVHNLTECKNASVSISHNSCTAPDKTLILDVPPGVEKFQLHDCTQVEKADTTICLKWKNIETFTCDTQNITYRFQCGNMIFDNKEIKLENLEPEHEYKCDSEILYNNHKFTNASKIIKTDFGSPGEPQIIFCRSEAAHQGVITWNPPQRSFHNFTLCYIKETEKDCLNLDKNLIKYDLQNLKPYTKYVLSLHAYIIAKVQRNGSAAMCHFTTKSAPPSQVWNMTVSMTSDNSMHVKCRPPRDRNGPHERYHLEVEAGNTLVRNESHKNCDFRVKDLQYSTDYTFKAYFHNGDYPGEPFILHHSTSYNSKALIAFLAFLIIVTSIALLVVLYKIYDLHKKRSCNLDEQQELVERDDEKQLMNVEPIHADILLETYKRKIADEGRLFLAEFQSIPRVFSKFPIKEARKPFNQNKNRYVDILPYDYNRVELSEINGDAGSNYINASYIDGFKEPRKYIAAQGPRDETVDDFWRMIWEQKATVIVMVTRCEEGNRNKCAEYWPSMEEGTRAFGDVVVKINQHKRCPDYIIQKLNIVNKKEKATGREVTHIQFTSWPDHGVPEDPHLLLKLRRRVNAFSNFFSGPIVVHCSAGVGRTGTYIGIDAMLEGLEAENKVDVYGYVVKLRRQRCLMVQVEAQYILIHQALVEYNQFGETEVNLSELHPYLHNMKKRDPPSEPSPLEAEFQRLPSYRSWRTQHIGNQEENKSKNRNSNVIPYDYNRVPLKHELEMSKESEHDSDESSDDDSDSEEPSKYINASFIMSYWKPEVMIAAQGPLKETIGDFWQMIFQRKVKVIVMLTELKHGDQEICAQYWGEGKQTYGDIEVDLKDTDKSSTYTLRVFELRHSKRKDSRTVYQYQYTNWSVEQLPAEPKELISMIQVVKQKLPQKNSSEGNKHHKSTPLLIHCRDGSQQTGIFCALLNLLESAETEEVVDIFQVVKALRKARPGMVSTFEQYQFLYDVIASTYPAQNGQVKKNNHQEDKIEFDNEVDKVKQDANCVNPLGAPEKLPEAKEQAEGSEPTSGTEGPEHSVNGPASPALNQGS
# Experimental: (§1) For the enzyme activity assay, 2.5 μl of compound, 12.5 μl of enzyme, and 10 μl of substrate (separated by air gaps) are added to columns 3 through 24 by the Biomek FX in a single dispense. After the dispense, the tips are washed with DMSO and water for re-use between each quadrant. Once the assay plates are set up, they are incubated at 27° C. for 45 minutes. Then 20 μl of detection buffer is added to stop the reaction and to allow the Europium antibody (Eu-Ab) and streptavidin-APC to bind to the substrate.
# (§2) The plates are then placed in the plate reader, an Analyst HT. Excitation light at 360 nm is used to excite the Europium antibody with an emission at 620 nm. Fluorescence resonance energy transfer (FRET) from Eu-Ab to APC will only occur when they are in close proximity. Therefore, when an APC emission is observed at 665 nm the enzyme has been inhibited from removing the phosphate group from the substrate. The FRET assay is time-resolved (TR), where there is a delay between excitation light and collection of emission signals. This reduces the amount of stray light created by short-lived fluorescing molecules. The Analyst HT measures APC and Europium emission signals and calculates the ratio between the two intensities. Typical intensities for the Europium is ˜2000 and APC is ˜600.
# (§3) The following compounds were tested by FRET against the listed phosphatases, and the IC50 were obtained. […]
# [2] = biological target: T2, T Cell (Homo sapiens, UniProt P17706); assay: FRET phosphatase assay, T Cell; assay type: biochemical
# T2 sequence (P17706 1-415): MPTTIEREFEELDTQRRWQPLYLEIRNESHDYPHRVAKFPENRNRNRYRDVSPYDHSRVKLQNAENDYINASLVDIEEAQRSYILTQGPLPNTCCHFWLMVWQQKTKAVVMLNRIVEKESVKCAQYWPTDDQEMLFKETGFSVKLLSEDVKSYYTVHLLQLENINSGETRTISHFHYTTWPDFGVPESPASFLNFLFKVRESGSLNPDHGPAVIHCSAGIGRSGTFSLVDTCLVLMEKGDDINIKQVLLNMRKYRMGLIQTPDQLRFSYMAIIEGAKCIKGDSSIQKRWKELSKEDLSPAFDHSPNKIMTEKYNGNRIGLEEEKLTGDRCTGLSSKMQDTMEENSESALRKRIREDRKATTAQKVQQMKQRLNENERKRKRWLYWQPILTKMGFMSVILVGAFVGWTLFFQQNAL
# Experimental: as §1, §2, §3
# [3] = biological target: PTPB (Homo sapiens, UniProt P23467); assay: FRET phosphatase assay, PTPB; assay type: biochemical
# Experimental: as §1, §2, §3
# [4] = biological target: T3, PTPMEG (Homo sapiens, UniProt P29074); assay: TR-FRET phosphatase activity assay, PTPMEG; assay type: biochemical
# T3 construct: Asp-Ser-6xHis (N); made in house; host or cells: E. coli BL21(DE3)
# T3 sequence (P29074 655-911 limits assumed): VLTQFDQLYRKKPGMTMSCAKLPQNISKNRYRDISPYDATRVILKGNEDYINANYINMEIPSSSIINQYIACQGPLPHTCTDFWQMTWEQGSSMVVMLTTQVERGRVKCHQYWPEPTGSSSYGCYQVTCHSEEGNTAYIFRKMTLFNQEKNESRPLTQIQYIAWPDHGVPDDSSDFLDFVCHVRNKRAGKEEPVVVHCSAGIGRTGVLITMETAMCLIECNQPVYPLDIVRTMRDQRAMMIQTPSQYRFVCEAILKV
# Experimental: Expression and Purification of PTPMEG The DNA sequence encoding the C-terminal 326 residues of PTPMEG (phosphatase domain) was subcloned into the pET-17b vector (Novagen) between the Ndel and Xhol restriction sites. An N-terminal tag consisting of Asp-Ser-6×His was incorporated at the beginning of the protein sequence. Protein expression was performed in BL21(DE3) cells at 37° C. with a 4 hour 0.5 mM IPTG induction. The cells were harvested by centrifugation and stored at −80° C. until needed for protein purification. Protein purification consisted of cell lysis by sonication, immobilized metal affinity chromatography (IMAC) on a Ni^2+-NTA column (Qiagen), followed by hydrophobic interaction chromatography (HIC) on a phenyl sepharose column (Amersham Pharmacia Biotech) and/or ion exchange chromatography (IEC) on a Q sepharose column (Amersham Pharmacia Biotech). The purified 38.3 kDa protein was buffer exchanged into 50 mM HEPES, pH 7.5 and stored at −80° C.
# Phosphatase Buffer: 50 mm HEPES, pH 8; 1 mM DDT; 2 mM EDTA; 0.01% Brij solution; 10 mM MgCl2. […]
# The plates are then placed in the plate reader, an Analyst HT. […] Fluorescence resonance energy transfer (FRET) from Eu-Ab to APC will only occur when they are in close proximity. […]
# [5] = system: mice; assay: Amphetamine-induced hyperactivity model (open field); conditions: 5 mg/kg SC, 60 min recording period
# [6] = biological target: T4, PTPMEG (Homo sapiens, UniProt P29074); assay: Western blot of NR2B and Src phosphorylation in NR1/NR2B stable cell line transfected with active Src and PTPMEG; assay type: cell-based; conditions: 48 h post transfection
# T4 construct: expressed in transfected cells
# T4 sequence (P29074 1-926): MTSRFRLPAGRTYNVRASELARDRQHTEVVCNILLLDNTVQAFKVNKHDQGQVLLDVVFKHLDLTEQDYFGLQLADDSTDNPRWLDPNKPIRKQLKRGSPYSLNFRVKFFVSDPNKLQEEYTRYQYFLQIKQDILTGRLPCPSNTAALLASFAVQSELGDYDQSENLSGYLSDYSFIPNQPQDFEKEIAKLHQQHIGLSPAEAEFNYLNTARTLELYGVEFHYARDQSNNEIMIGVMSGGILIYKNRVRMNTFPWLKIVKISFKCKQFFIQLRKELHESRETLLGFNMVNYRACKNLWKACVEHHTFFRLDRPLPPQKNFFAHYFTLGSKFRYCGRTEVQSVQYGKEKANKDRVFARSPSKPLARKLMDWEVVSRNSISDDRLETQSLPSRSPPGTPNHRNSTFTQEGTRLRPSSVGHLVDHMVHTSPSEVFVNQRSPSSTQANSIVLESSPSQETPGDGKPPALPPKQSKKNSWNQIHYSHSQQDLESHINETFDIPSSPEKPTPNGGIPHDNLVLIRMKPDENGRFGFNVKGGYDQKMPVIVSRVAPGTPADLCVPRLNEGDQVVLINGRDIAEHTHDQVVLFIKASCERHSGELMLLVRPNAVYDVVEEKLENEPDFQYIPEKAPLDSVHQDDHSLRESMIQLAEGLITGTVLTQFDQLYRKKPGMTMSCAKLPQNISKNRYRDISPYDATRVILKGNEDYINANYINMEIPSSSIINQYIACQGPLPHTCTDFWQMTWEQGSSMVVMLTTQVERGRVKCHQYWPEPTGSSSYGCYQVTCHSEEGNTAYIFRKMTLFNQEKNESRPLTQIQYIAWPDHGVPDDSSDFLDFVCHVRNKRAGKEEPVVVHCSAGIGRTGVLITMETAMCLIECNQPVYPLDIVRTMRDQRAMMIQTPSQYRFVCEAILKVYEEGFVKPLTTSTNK
# Experimental: A stable cell line, expressing the NMDA receptor subunit NR1 together with NR2B was transiently transfected with constitutive active Src kinase and PTPMEG, wildtype and dominant negative CS mutant, respectively. Control experiments included dephostatin, a generic tyrosine phosphatase inhibitor. 48 h post transfection cells were lysed and subsequently analyzed by western blot. In presence of the active wildtype PTPMEG phosphatase, both the NR2B subunit as well as Src kinase were dephosphorylated, shown in FIG. 3. […] NR2B phosphorylation by Src kinase was detected by an NR2B phosphospecific antibody. Dephosphorylation of NR2B and Src kinase was reversed by addition of dephostatin, and unaffected in presence of the dominant negative form of PTPMEG (CS). (FIG. 5)
# [7] = biological target: T4, PTPMEG; assay: Western blot of Src/fyn Y418 phosphorylation in NR1/NR2B stable cell line transfected with active Src or fyn and PTPMEG; assay type: cell-based; conditions: 500 μM, 3 hours, 48 hrs post-transfection
# From the text: PTPMEG Dephosphorylates Protein Kinases Src and fyn. A stable cell line expressing the NR1 and NR2B subunits of the NMDA receptor was transiently transfected with constitutive active Src Srcor constitutive active fyn (fyn Y530F, where the tyrosine at position 530 is substituted by a phenylalanine) and PTPMEG, from a full length PTPMEG (amino-terminal myc-tag, c-terminal HA tag) expression construct in the pRK5 vector, with a CMV-driven promoter.
# 48 hrs post-transfection the cells were stimulated with 500 μM sodium orthovanadate, a […] for 3 hours. Cells were lysed and analyzed by western blot using a Src/fyn specific phosphoantibody (from Biosource) that recognizes the residue Y418 critical for activity for both Src and fyn. In presence of PTPMEG (identified with a c-myc antibody from Upstate) there is a dephosphorylation of Src and fyn at position Y418. This dephosphorylation is reversed by sodium orthovanadate. A pan Src antibody that recognizes total Src and fyn is used as a loading control.
# PTPB, sequence (P23467 1643-1997 limits assumed): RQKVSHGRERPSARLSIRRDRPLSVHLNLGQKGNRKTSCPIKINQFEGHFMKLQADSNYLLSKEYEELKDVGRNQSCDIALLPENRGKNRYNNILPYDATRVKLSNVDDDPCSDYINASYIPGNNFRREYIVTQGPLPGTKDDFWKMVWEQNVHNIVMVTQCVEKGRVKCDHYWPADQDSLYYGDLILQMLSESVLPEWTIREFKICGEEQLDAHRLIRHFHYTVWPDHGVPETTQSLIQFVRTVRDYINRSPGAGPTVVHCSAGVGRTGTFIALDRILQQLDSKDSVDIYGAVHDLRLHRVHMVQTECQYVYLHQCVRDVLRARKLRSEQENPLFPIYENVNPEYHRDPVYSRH
smiles,measurement,setting,value
O=C(O)CN1C(=O)c2cccc3cccc1c23 [AGY- 0041763],IC50,[1],> 500 µM
same,IC50,[2],> 500 µM
same,IC50,[3],> 500 µM
same,IC50,[4],0.56 µM
C[C@H](N)Cc1ccccc1 [d-amphetamine],Locomotion (total distance in the open field),[5],significantly increases
CN(N=O)c1cc(O)ccc1O [dephostatin],Dephosphorylation of NR2B by PTPMEG,[6]; NR2B phosphospecific antibody western blot,reversed
same,Dephosphorylation of Src kinase (position 418) by PTPMEG,[6]; anti PY418 western blot,reversed; also recorded: restores phosphorylation
[Na+].[Na+].[Na+].[O]=[V]([O-])([O-])[O-] [sodium orthovanadate],Dephosphorylation of Src and fyn at position Y418 by PTPMEG,[7],reversed
